Source: US9783527B2, “Indazole ureas and method of use” (AbbVie Inc., priority 2014, dated 2017)

Assays:
human Nav1.7 = human Nav1.7 (Homo sapiens (Human), UniProt Q15858); assay: FRET-based membrane potential assay, recombinant human sodium channel Nav1.7; assay type: cell-based; settings: HEK293 cells stably expressing recombinant human Nav1.7; depolarization with veratridine (EC80) + scorpion venom
Summary of the method: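 IC50 derived by four-parameter Hill fit of percent inhibition of depolarization, measured as peak F440-480/F565-625 ratio over baseline. Stable human Nav1.7 HEK293 cells, dye-loaded with CC2-DMPE and DiSBAC2(3)/VABSC-1 at room temperature, received compound 3 min ahead of veratridine (EC80) plus scorpion venom.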

human Nav1.8 = human Nav1.8 (Homo sapiens (Human), UniProt Q9Y5Y9); assay: FRET-based membrane potential assay, recombinant human sodium channel Nav1.8; assay type: cell-based; settings: HEK293 cells stably expressing recombinant human Nav1.8; depolarization with veratridine (EC80) + scorpion venom
Sequence of human Nav1.8 (Q9Y5Y9 whole entry): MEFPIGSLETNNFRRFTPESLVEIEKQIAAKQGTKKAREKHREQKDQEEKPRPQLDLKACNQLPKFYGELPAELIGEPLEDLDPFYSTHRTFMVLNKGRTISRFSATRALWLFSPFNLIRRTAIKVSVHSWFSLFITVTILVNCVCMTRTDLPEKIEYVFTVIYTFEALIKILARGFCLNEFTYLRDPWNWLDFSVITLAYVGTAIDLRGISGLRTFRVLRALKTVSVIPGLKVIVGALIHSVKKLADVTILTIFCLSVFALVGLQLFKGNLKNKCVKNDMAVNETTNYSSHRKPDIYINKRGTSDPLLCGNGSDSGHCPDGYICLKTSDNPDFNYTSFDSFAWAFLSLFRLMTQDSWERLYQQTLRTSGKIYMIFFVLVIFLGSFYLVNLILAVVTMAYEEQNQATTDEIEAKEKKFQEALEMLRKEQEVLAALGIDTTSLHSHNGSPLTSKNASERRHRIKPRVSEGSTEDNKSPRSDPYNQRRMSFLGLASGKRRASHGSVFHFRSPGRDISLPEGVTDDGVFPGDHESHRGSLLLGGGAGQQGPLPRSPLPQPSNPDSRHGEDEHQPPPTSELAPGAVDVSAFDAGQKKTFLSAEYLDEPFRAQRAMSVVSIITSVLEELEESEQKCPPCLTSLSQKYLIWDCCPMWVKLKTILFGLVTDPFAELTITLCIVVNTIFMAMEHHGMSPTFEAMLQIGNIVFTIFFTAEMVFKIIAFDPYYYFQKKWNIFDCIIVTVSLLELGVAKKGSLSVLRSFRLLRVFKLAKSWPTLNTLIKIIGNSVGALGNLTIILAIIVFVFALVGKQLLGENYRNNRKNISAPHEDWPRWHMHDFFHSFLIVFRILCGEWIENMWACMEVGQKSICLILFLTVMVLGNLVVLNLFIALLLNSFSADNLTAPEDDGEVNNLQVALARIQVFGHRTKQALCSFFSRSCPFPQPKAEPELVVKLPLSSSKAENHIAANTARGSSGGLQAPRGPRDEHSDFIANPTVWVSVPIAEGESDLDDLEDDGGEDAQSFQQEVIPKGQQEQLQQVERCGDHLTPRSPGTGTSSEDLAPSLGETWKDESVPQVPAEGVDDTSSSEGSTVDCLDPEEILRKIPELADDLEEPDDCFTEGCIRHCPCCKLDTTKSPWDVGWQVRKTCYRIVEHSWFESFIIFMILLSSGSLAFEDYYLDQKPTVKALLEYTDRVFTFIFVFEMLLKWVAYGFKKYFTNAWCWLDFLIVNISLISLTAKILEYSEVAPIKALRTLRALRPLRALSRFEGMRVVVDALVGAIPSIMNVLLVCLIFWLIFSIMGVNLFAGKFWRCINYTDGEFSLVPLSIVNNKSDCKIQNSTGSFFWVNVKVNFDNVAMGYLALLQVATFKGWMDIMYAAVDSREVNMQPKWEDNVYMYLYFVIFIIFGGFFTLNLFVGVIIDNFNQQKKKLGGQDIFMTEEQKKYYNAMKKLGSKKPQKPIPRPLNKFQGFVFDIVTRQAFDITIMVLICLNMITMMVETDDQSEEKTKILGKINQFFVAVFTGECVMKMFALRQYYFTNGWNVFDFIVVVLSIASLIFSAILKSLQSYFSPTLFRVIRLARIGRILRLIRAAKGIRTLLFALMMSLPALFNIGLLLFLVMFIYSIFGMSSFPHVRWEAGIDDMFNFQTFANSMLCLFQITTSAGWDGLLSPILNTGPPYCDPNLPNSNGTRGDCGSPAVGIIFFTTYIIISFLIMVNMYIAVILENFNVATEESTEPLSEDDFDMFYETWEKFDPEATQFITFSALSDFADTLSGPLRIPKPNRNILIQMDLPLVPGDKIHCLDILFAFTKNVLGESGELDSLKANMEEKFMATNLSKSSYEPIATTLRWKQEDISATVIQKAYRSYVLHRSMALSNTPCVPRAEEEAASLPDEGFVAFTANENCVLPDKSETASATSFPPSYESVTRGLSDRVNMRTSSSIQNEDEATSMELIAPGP
Description: FRET-Based Membrane Potential Assays.
Recombinant, Human Sodium Channel, Nav1.8.
Two days prior to the experiment, frozen HEK293 cells stably expressing recombinant human Nav1.8 (Essen, Ann Arbor, Mich.) were quickly thawed and plated at 22,500 cells/well in growth medium [MEM (Invitrogen #11095) with 10% FBS (Invitrogen #10082), 1 mM sodium pyruvate (Invitrogen, #C11360), 10 units/mL penicillin/10 U/mL streptomycin/29.2 μg/mL glutamine ((PSG 1%, Invitrogen #10378), 400 μg/mL zeocin (Invitrogen #R250) in black-walled, clear-bottom 384-well poly-D-lysine-coated assay plates (Greiner Bio-One, Frickenhausen, Germany) and incubated in a humidified 5% CO2 incubator at 37° C. On the day of the assay, medium was removed by aspiration, and cells were washed with assay buffer [HBSS (Invitrogen, Carlsbad, Calif.) containing 20 mM HEPES (Invitrogen, Carlsbad, Calif.)]. After washing, 30 μL assay buffer containing the fluorescent voltage-sensor probe CC2-DMPE (Invitrogen, Carlsbad, Calif.) at 20 μM and 0.01% pluronic F-127 (Invitrogen, Carlsbad, Calif.) was added to the cells. Cells were incubated for 40 minutes at room temperature in the dark. Following the incubation, the cells were washed and 30 μL assay buffer containing 2.5 μM DiSBAC2(3) substrate (Invitrogen, Carlsbad, Calif.) and 0.5 mM VABSC-1 (Invitrogen, Carlsbad, Calif.) was added to the cells. The cells were incubated for 60 minutes at room temperature in the dark. Fluorescence readings were made using a FLIPR®^TETRA (Molecular Devices, Sunnyvale Calif.) equipped with voltage-sensor probe optics. The depolarizing agent, veratridine (Sigma-Aldrich, St. Louis, Mo.), was made up at 3× concentrations in assay buffer containing 1 mg/mL scorpion venom (SVqq, from Leiurus quinquestriatus; Sigma-Aldrich, St. Louis, Mo.). The assay agonist/opener concentration was determined each day using a 6-point veratridine concentration curve in duplicate, tested with three concentrations of tetracaine (0.1, 0.06, 0.01 μM all in 0.03% dimethyl sulfoxide) and 0.03% dimethyl sulfoxide control in assay buffer. […] Test compounds in the daughter plate were diluted to (˜3×) solutions in assay buffer immediately before assaying. Using the FLIPR®^TETRA, 20 μL of the (3×) compound solutions were first added to the cells, then 20 μL of depolarizing solution (3×EC80 veratridine+SVqq) were added 3 minutes later to activate the channel. Changes in fluorescence were measured at wavelengths of 440-480 nm and 565-625 nm over the course of the experimental run. Membrane depolarization was expressed as a ratio of the maximum F440-480 nm/F565-625 nm reading above average baseline F440-480 nm/F565-625 nm reading. IC50 values were calculated from curve fits of the ratio data using a four-parameter logistic Hill equation (Accelrys Assay Explorer 3.3 Client, Accelrys, San Diego, Calif.) with percent inhibition plotted against compound concentration.

Sequence of human Nav1.7 (Q15858 whole entry): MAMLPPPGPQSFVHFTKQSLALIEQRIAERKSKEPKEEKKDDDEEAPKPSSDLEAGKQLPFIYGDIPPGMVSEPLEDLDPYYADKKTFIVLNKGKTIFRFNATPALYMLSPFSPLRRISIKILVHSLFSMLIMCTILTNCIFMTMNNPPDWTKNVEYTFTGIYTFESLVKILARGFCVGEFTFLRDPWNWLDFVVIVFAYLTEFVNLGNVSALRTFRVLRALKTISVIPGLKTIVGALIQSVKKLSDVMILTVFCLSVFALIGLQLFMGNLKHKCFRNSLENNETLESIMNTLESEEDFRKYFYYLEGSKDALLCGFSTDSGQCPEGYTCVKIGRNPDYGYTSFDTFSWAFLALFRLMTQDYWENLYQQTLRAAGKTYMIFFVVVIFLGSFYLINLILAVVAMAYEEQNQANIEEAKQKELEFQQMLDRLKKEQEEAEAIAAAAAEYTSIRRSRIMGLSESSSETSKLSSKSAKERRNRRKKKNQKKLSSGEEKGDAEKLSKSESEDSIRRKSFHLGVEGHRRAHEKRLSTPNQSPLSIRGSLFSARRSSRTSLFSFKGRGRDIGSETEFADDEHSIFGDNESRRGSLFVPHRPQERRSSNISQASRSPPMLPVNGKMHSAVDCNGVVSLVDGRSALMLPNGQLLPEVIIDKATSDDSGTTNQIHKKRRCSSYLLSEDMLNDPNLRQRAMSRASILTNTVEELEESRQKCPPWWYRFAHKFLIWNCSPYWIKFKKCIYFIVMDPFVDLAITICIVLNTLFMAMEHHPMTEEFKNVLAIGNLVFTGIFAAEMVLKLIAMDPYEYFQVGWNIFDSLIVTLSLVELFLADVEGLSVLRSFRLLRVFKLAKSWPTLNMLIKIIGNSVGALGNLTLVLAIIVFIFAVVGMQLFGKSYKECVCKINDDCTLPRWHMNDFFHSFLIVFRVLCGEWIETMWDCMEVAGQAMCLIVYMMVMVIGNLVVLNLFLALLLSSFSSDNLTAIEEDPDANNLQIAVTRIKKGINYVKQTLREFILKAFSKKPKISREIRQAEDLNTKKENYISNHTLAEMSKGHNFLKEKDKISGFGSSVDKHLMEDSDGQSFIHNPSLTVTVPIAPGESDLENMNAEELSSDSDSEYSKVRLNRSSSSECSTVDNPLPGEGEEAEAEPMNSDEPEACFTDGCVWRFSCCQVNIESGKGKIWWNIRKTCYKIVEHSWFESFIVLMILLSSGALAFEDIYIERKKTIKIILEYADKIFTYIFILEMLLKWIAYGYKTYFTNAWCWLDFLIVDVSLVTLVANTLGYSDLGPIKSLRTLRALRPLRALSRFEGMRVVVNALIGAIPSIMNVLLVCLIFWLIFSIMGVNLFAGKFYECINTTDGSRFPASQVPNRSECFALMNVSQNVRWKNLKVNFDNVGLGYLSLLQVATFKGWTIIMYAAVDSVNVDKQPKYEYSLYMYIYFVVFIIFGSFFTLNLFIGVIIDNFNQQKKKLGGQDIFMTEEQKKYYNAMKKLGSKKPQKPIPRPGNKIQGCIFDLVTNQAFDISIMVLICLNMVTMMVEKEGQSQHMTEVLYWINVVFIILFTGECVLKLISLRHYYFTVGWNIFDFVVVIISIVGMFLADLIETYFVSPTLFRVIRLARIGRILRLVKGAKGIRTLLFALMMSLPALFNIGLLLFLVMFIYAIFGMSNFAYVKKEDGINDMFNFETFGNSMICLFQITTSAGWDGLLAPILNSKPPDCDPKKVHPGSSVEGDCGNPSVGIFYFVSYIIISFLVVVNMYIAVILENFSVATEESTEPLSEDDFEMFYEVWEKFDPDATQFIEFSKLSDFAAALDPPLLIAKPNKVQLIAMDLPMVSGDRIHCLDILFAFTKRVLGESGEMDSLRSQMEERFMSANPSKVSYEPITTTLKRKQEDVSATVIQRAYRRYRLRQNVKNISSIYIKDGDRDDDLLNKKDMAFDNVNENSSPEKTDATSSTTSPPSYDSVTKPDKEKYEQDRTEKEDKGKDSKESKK

O=C(CN1CCN(c2cccc3c2cnn3-c2ccccc2F)C1=O)NC1CC(F)(F)C1 [Example 310, N-(3,3-difluorocyclobutyl)-2-{3-[1-(2-fluorophenyl)-1H-indazol-4-yl]-2-oxoimidazolidin-1-yl}acetamide]
IC50 (human Nav1.7): 2810 nM | IC50 (human Nav1.8): 878 nM

O=C1C[C@H]2CC[C@@H](C1)N2C(=O)CN1CCN(c2cccc3c2cnn3-c2ccccc2F)C1=O [Example 311, (1R,5S)-8-({3-[1-(2-fluorophenyl)-1H-indazol-4-yl]-2-oxoimidazolidin-1-yl}acetyl)-8-azabicyclo[3.2.1]octan-3-one]
IC50 (human Nav1.7): 5850 nM | IC50 (human Nav1.8): 4350 nM

O=C(CN1CCN(c2cccc3c2cnn3-c2ccccc2F)C1=O)N1CC(F)(F)C(F)(F)C1 [Example 312, 1-[1-(2-fluorophenyl)-1H-indazol-4-yl]-3-[2-oxo-2-(3,3,4,4-tetrafluoropyrrolidin-1-yl)ethyl]imidazolidin-2-one]
IC50 (human Nav1.7): 1710 nM | IC50 (human Nav1.8): 1680 nM

O=C1CCCN(C(=O)CN2CCN(c3cccc4c3cnn4-c3ccccc3F)C2=O)CC1 [Example 313, 1-({3-[1-(2-fluorophenyl)-1H-indazol-4-yl]-2-oxoimidazolidin-1-yl}acetyl)azepan-4-one]
IC50 (human Nav1.7): 2720 nM | IC50 (human Nav1.8): 3250 nM

O=C(/C=C\N1CCN(c2cccc3c2cnn3-c2ccccc2F)C1=O)N1CC[C@H](F)C1 [Example 314, 1-[1-(2-fluorophenyl)-1H-indazol-4-yl]-3-{(1Z)-3-[(3S)-3-fluoropyrrolidin-1-yl]-3-oxoprop-1-en-1-yl}imidazolidin-2-one]
IC50 (human Nav1.7): 3250 nM | IC50 (human Nav1.8): 912 nM

CCNC(=O)CN1CCN(c2cccc3c2cnn3-c2ccccc2F)C1=O [Example 315, N-ethyl-2-{3-[1-(2-fluorophenyl)-1H-indazol-4-yl]-2-oxoimidazolidin-1-yl}acetamide]
IC50 (human Nav1.7): 2960 nM | IC50 (human Nav1.8): 3560 nM

O=C(CCN1CCN(c2cccc3c2cnn3-c2ccccc2F)C1=O)N1CCC[C@@H](F)C1 [Example 317, 1-[1-(2-fluorophenyl)-1H-indazol-4-yl]-3-{3-[(3R)-3-fluoropiperidin-1-yl]-3-oxopropyl}imidazolidin-2-one]
IC50 (human Nav1.7): 2440 nM | IC50 (human Nav1.8): 1280 nM

O=C(CCN1CCN(c2cccc3c2cnn3-c2ccccc2F)C1=O)N1CCC[C@H](F)C1 [Example 318, 1-[1-(2-fluorophenyl)-1H-indazol-4-yl]-3-{3-[(3S)-3-fluoropiperidin-1-yl]-3-oxopropyl}imidazolidin-2-one]
IC50 (human Nav1.7): 3140 nM | IC50 (human Nav1.8): 3470 nM

COC1CN(C(=O)CN2CCN(c3cccc4c3cnn4-c3ccccc3F)C2=O)C1 [Example 319, 1-[1-(2-fluorophenyl)-1H-indazol-4-yl]-3-[2-(3-methoxyazetidin-1-yl)-2-oxoethyl]imidazolidin-2-one]
IC50 (human Nav1.7): 3140 nM | IC50 (human Nav1.8): 3020 nM

O=C(CN1CCN(c2cccc3c2cnn3-c2ccccc2F)C1=O)NC1CCOCC1 [Example 320, 2-{3-[1-(2-fluorophenyl)-1H-indazol-4-yl]-2-oxoimidazolidin-1-yl}-N-(tetrahydro-2H-pyran-4-yl)acetamide]
IC50 (human Nav1.7): 16800 nM | IC50 (human Nav1.8): 10100 nM

O=C(CN1CCN(c2cccc3c2cnn3-c2ccccc2F)C1=O)NC1COC1 [Example 321, 2-{3-[1-(2-fluorophenyl)-1H-indazol-4-yl]-2-oxoimidazolidin-1-yl}-N-(oxetan-3-yl)acetamide]
IC50 (human Nav1.7): 5790 nM | IC50 (human Nav1.8): 5670 nM

O=C(CN1CCN(c2cccc3c2cnn3-c2ccccc2F)C1=O)NC1CCC1 [Example 322, N-cyclobutyl-2-{3-[1-(2-fluorophenyl)-1H-indazol-4-yl]-2-oxoimidazolidin-1-yl}acetamide]
IC50 (human Nav1.7): 973 nM | IC50 (human Nav1.8): 1890 nM

O=C(CN1CCN(c2cccc3c2cnn3-c2ccccc2F)C1=O)NC1CCCC1 [Example 323, N-cyclopentyl-2-{3-[1-(2-fluorophenyl)-1H-indazol-4-yl]-2-oxoimidazolidin-1-yl}acetamide]
IC50 (human Nav1.7): 1460 nM | IC50 (human Nav1.8): 695 nM

O=C(CN1CCN(c2cccc3c2cnn3-c2ccccc2F)C1=O)NC1CCCCC1 [Example 324, N-cyclohexyl-2-{3-[1-(2-fluorophenyl)-1H-indazol-4-yl]-2-oxoimidazolidin-1-yl}acetamide]
IC50 (human Nav1.7): 1410 nM | IC50 (human Nav1.8): 526 nM

CC(=O)C1CN(C(=O)CN2CCN(c3cccc4c3cnn4-c3ccccc3F)C2=O)C1 [Example 325, 1-[2-(3-acetylazetidin-1-yl)-2-oxoethyl]-3-[1-(2-fluorophenyl)-1H-indazol-4-yl]imidazolidin-2-one]
IC50 (human Nav1.7): 3120 nM | IC50 (human Nav1.8): 3860 nM

O=C(/C=C/N1CCN(c2cccc3c2cnn3-c2ccccc2F)C1=O)N1CC[C@H](F)C1 [Example 327, 1-[1-(2-fluorophenyl)-1H-indazol-4-yl]-3-{(1E)-3-[(3S)-3-fluoropyrrolidin-1-yl]-3-oxoprop-1-en-1-yl}imidazolidin-2-one]
IC50 (human Nav1.7): 2890 nM | IC50 (human Nav1.8): 678 nM

O=C(CN1CCN(c2cccc3c2cnn3-c2ccccc2F)C1=O)N1CC(C(F)(F)F)C1 [Example 329, 1-[1-(2-fluorophenyl)-1H-indazol-4-yl]-3-{2-oxo-2-[3-(trifluoromethyl)azetidin-1-yl]ethyl}imidazolidin-2-one]
IC50 (human Nav1.7): 2720 nM | IC50 (human Nav1.8): 3130 nM

CC(C)O[C@H]1CCCC[C@@H]1N1CCN(c2cccc3c2cnn3-c2ccccc2F)C1=O [Example 331, 1-[1-(2-fluorophenyl)-1H-indazol-4-yl]-3-[(1S,2S)-2-isopropoxycyclohexyl]imidazolidin-2-one]
IC50 (human Nav1.7): 1440 nM | IC50 (human Nav1.8): 3650 nM

O=C(CN1CCN(c2cccc3c2cnn3-c2ccccc2F)C1=O)N[C@@H]1CCC[C@@H]1O [Example 332, 2-{3-[1-(2-fluorophenyl)-1H-indazol-4-yl]-2-oxoimidazolidin-1-yl}-N-[(1R,2S)-2-hydroxycyclopentyl]acetamide]
IC50 (human Nav1.7): 5100 nM | IC50 (human Nav1.8): 2640 nM

O=C(CN1CCN(c2cccc3c2cnn3-c2ccccc2F)C1=O)N[C@H]1CCC[C@@H]1OCc1ccccc1 [Example 334, N-[(1S,2S)-2-(benzyloxy)cyclopentyl]-2-{3-[1-(2-fluorophenyl)-1H-indazol-4-yl]-2-oxoimidazolidin-1-yl}acetamide]
IC50 (human Nav1.7): 1930 nM | IC50 (human Nav1.8): 657 nM

O=C(CN1CCN(c2cccc3c2cnn3-c2ccccc2F)C1=O)N[C@@H]1CCC[C@H]1OCc1ccccc1 [Example 335, N-[(1R,2R)-2-(benzyloxy)cyclopentyl]-2-{3-[1-(2-fluorophenyl)-1H-indazol-4-yl]-2-oxoimidazolidin-1-yl}acetamide]
IC50 (human Nav1.7): 1110 nM | IC50 (human Nav1.8): 501 nM

CC(C)COC1COCC1N1CCN(c2cccc3c2cnn3-c2ccccc2F)C1=O (centres unmarked) [Example 336, 1-[1-(2-fluorophenyl)-1H-indazol-4-yl]-3-(4-isobutoxytetrahydrofuran-3-yl)imidazolidin-2-one]
IC50 (human Nav1.7): 2140 nM | IC50 (human Nav1.8): 867 nM

CC(C)CO[C@H]1CCC[C@H]1NC(=O)CN1CCN(c2cccc3c2cnn3-c2ccccc2F)C1=O [Example 337, 2-{3-[1-(2-fluorophenyl)-1H-indazol-4-yl]-2-oxoimidazolidin-1-yl}-N-[(1R,2S)-2-isobutoxycyclopentyl]acetamide]
IC50 (human Nav1.7): 2240 nM | IC50 (human Nav1.8): 846 nM

O=C(CN1CCN(c2cccc3c2cnn3-c2ccc(Cl)cc2)C1=O)N1CC[C@H](F)C1 [Example 338, 1-[1-(4-chlorophenyl)-1H-indazol-4-yl]-3-{2-[(3S)-3-fluoropyrrolidin-1-yl]-2-oxoethyl}imidazolidin-2-one]
IC50 (human Nav1.7): 1060 nM | IC50 (human Nav1.8): 2620 nM

CC(C)(C)NC(=O)CN1CCN(c2cccc3c2cnn3-c2ccccc2F)C1=O [Example 339, N-tert-butyl-2-{3-[1-(2-fluorophenyl)-1H-indazol-4-yl]-2-oxoimidazolidin-1-yl}acetamide]
IC50 (human Nav1.7): 5670 nM | IC50 (human Nav1.8): 2670 nM
